PubChem BioAssay (NCI)
Several values for one entry are separate records, joined by “and”; a condition that tells them apart may be missing. Equal entries are not always repeated.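 All cell lines were grown in 96-well plates and treated with compound for 48 hours. GI50 marks 50% less growth. TGI: total growth inhibition.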

Tests used:
Assay in all cases: NCI-60 cell line screen, 48 h
HOP-62 NSCLC = system: HOP-62 NSCLC
SF-539 CNS = system: SF-539 CNS
HT29 colon = system: HT29 colon
DU-145 prostate = system: DU-145 prostate
TK-10 renal = system: TK-10 renal
K-562 leukemia = system: K-562 leukemia
786-0 renal = system: 786-0 renal
A549 NSCLC = system: A549 NSCLC
DMS 114 small cell lung = system: DMS 114 small cell lung
DMS 273 small cell lung = system: DMS 273 small cell lung
DLD-1 colon = system: DLD-1 colon

Structure (SMILES) | TGI (HOP-62 NSCLC) [µM] | TGI (SF-539 CNS) [µM] | TGI (HT29 colon) | TGI (DU-145 prostate) [µM] | TGI (TK-10 renal) [µM] | TGI (K-562 leukemia) [µM] | TGI (786-0 renal) | TGI (A549 NSCLC) [µM] | GI50 (SF-539 CNS) [µM] | TGI (DMS 114 small cell lung) [µM] | TGI (DMS 273 small cell lung) [µM] | TGI (DLD-1 colon) [µM] | GI50 (HOP-62 NSCLC) [µM] | GI50 (HT29 colon) [µM] | GI50 (DU-145 prostate) [µM] | GI50 (DLD-1 colon) [µM] | GI50 (K-562 leukemia) [µM] | GI50 (A549 NSCLC) [µM]
O=C(/C=C/c1ccc(O)c(-c2cc(C(=O)/C=C/c3ccc(O)cc3)c(O)cc2O)c1)c1ccc(O)cc1O | > 50 | 26.3 | 22.3 µM | > 50 | > 50 | 35.1 | > 50 µM | > 50 | – | – | – | – | – | – | – | – | – | –
CCCNC(=O)CCC(C)C1CCC2C3C(C[C@H](OC(C)=O)[C@]12C)[C@@]1(C)CCC2(C[C@H]1C[C@H]3OC(C)=O)OOC1(CC[C@]3(C)C4C[C@H](OC(C)=O)[C@]5(C)C(C(C)CCC(=O)NCCC)CCC5C4[C@H](OC(C)=O)C[C@@H]3C1)OO2 (stereo not given in full) | > 100 | > 100 | > 100 µM | > 100 | > 100 | > 100 | > 100 µM | > 100 | > 82.2 | – | – | – | – | – | – | – | – | –
[N-]=[N+]=CC(=O)c1ccccc1C#CCCc1ccccc1 | > 100 | > 100 | 36.7 µM | – | > 100 | > 100 | – | > 100 | – | 23.6 | 73.7 | > 100 | – | – | – | – | – | –
CC1=CC(=O)c2ccccc2C1=O | 29.8 | 11.9 | 34.1 µM | 29.4 | 34.1 | – | 28.5 µM | 40.2 | – | – | – | – | – | – | – | – | – | –
CCC1CN(C(=O)c2ccccc2)C(Cc2c[nH]c3ccccc23)C(=O)C1CC(=O)OC (stereo not given) | > 100 | > 100 | > 100 µM | > 100 | > 100 | > 100 | – | – | – | – | – | – | – | – | – | – | – | –
CCOC(=O)C1=NN(c2ccc(C)cc2)C2=CC(C)=NN(C)C(=S)N21 | – | > 100 | > 100 µM | > 100 | > 100 | > 100 | – | > 100 | – | – | – | – | – | – | – | – | – | –
Nc1ccccc1S(=O)(=O)c1ccccc1 | > 100 | > 100 | > 100 µM | – | > 100 | > 100 | – | > 100 | – | > 100 | > 100 | > 100 | – | – | – | – | – | –
Cc1c(N2C(=O)CS(=O)(=O)C2c2cccc(Oc3ccccc3)c2)c(=O)n(-c2ccccc2)n1C (stereo not given) | > 100 | > 100 | > 100 µM | > 100 | 47.7 | > 100 | – | > 100 | – | – | – | – | – | – | – | – | – | –
O=c1[nH]nc(NNc2ccccc2)c2nnn(C3CCCCC3)c12 | > 100 | – | > 100 µM | > 100 | > 100 | > 100 | – | > 100 | – | – | – | – | – | – | – | – | – | –
COc1nc(C#CC2(O)CCCCC2)nc(OC)n1 | 91 | 23.3 | 45.4 µM | 19.6 | – | > 100 | > 100 µM | 28.1 | – | – | – | – | – | – | – | – | – | –
COc1ccc(C(=O)c2sc(Nc3ccc(Cl)cc3)nc2N)cc1 | 38.6 | 66.2 | > 64.9 µM | > 100 | 33.4 | > 100 | 28.6 µM | > 59.6 | – | – | – | – | – | – | – | – | – | –
CCn1c(-c2ccc(N=NNc3ccc(-c4n[nH]c(=S)n4CC)cc3)cc2)n[nH]c1=S | 8.03 | – | > 100 µM | 8.17 | > 100 | > 100 | 37.2 µM | > 100 | – | – | – | – | – | – | – | – | – | –
O=C(C[n+]1ccc2ccccc2c1)c1ccc2ccc3ccccc3c2c1 | 21.1 | 14.2 | 12.2 µM | 21.3 | 8.74 | 1.99 | 18 µM | 16.6 | – | – | – | – | – | – | – | – | – | –
CC(C)(C)c1cc(C2=NNC(c3ccccc3)C2)cc(C(C)(C)C)c1O (stereo not given) | 33.3 | 44.7 | 50.3 µM | 30.3 | 29.4 | – | 29.6 µM | 34.5 | – | – | – | – | – | – | – | – | – | –
COc1cccc2c1Cc1cc(-c3ccccc3)[n+](C)n1-2 | > 100 | 44.1 | 32 µM | > 100 | > 100 | > 100 | 84.2 µM | > 100 | – | – | – | – | – | – | – | – | – | –
CCCCCCCCC/C=C/C=C/C(=O)NCC(=O)NC1C(O)C(O)C(Nc2ncnc3nc[nH]c23)OC1C(O)CO (stereo not given) | – | 0.103 | 0.349 µM and 0.117 µM | – | 1.71 | > 100 | 0.176 µM and 0.256 µM | – | – | > 100 | – | – | 0.0011 | 0.000103 | 0.00477 | 0.896 | 0.36 | 0.00608
O=C(OCN1C(=O)C2C3C=CC(C2C1=O)C1C2C(=O)N(COC(=O)C4CCCN4)C(=O)C2C31)C1CCCN1 (stereo not given) | > 100 | > 100 | > 100 µM | – | > 100 | > 100 | > 60.6 µM | > 100 | – | > 60.6 | > 56.4 | > 69.7 | – | – | – | – | – | –
O=C(/C=C/c1ccccc1)NNC(=O)c1c(Cl)c(Cl)c(Cl)c(Cl)c1-c1nc2ccccc2[nH]1 | 56.5 | > 100 | > 100 µM | > 100 | – | > 100 | 73.8 µM | 67.7 | – | – | – | – | – | – | – | – | – | –
Nc1nc(SCCc2ccccc2)nc2nc3c(c(-c4ccccc4)c12)CCCC3 | > 100 | > 100 | > 100 µM | > 100 | > 100 | > 100 | – | > 100 | – | – | – | – | – | – | – | – | – | –
CC12CC3OC(=O)C1COC14OC5(C2C1=O)C(O)(CCC1C4CC(O)C2(O)CC=CC(=O)C12C)C(=O)OC35C (stereo not given) | – | > 100 | > 100 µM | > 100 | > 100 | > 100 | > 100 µM | > 100 | – | – | – | – | – | – | – | – | – | –
